Laboratory results reported in patent US20220047545A1 (priority 2020, published 2022).

Legend:
[1] = test system: cathepsin L expression in A549 cells; test: Cathepsin L expression in A549 cells (Western blot); type: cell-based, human; conditions: for cathepsin L expression at protein level: A549 cells
Description: Proteins (50 μg/well) were separated on 8-16% gradient SDS-PAGE gels and transferred to a PVDF membrane. […] Images were captured with Azure™ cSeries digital imaging system (Azure Biosystems, Dublin, Calif.) with auto-exposure settings. Densitometry was performed with NIH ImageJ software.
Cathepsin L expression: Expression of cathepsin L in cells was performed using Western blot. Briefly, 48 hours prior to the analysis, A549 cells were treated with PB at 5.0, and 10 μg/ml concentrations. Next, cells were washed with 1×PBS, lysed, and processed according to procedure described below.
Western blot: […] cells were lysed with lysis buffer [RIPA buffer plus 1× Protease Inhibitor (ThermoFisher Scientific, Waltham, Mass.)]. The protein estimation was performed with Dc Protein Assay (Bio-Rad, Hercules, Calif.). A 45 μg/well of protein was separated on 8-16% gradient SDS-PAGE gels and transferred to a PVDF membrane. Detection was performed with antibodies against cathepsin L at 1:200 dilution (Santa Cruz Biotechnology, Santa Cruz, Calif.) and against β-actin at 1:1000 dilution (Cell Signaling, Danvers, Mass.).

[2] = test system: lysosomal/endosomal pH in A549 cells; test: Endosomal/lysosomal pH assay; type: cell-based, human; conditions: 5.0-25 μg/ml; control approximately pH=5.0
Description: Endosomal/lysosomal pH assay: Endosomal pH was assessed according to a previously reported protocol [54]. […] Acridine orange (Thermo Fisher Scientific, Waltham, Mass.) was added directly to each dish to reach a final concentration of 6.6 μg/ml. The cells were additionally incubated at 37° C. with 5% CO2 for 20 min. and washed three times with 1×PBS. Live Cell Imaging Solution (LCIS) (Thermo Fisher Scientific, Waltham, Mass.) was added to the wells, and images were taken using a Zeiss Axio Observer A1 fluorescence microscope with a 40× magnification. […] Results are expressed as a percentage of polyphenol-free control (mean+/−SD, n=3).
A concurrent experiment was performed using pHrodo™ Green AM Intracellular pH Indicator (Thermo Fisher Scientific, Waltham, Mass.) according to the manufacturer's protocol. […] The plate was incubated for 30 min. at 37° C., washed again with LCIS, and fluorescence was measured at Ex/Em=509/533 nm wavelength using a spectrofluorometer (Tecan Group Ltd, Switzerland). pH identification was performed based on standard curve, using an Intracellular pH Calibration Buffer Kit according to the manufacturer's protocol (Thermo Fisher Scientific, Waltham, Mass.). […] Next, the fluorescence was measured Ex/Em=509/533 nm wavelength. […]

[3] = biological target: RBD of SARS-CoV-2 spike protein binding to hACE2 receptor (Severe acute respiratory syndrome coronavirus 2, UniProt P0DTC2)
[4] = biological target: RBD of SARS-CoV-2 spike protein (Severe acute respiratory syndrome coronavirus 2, UniProt P0DTC2); conditions: literature computational study; cited from earlier work
[5] = biological target: T1, hACE2 (Homo sapiens, UniProt Q9BYF1); conditions: literature computational study (Jena et al.); cited from earlier work
T1 sequence (Q9BYF1 18-805): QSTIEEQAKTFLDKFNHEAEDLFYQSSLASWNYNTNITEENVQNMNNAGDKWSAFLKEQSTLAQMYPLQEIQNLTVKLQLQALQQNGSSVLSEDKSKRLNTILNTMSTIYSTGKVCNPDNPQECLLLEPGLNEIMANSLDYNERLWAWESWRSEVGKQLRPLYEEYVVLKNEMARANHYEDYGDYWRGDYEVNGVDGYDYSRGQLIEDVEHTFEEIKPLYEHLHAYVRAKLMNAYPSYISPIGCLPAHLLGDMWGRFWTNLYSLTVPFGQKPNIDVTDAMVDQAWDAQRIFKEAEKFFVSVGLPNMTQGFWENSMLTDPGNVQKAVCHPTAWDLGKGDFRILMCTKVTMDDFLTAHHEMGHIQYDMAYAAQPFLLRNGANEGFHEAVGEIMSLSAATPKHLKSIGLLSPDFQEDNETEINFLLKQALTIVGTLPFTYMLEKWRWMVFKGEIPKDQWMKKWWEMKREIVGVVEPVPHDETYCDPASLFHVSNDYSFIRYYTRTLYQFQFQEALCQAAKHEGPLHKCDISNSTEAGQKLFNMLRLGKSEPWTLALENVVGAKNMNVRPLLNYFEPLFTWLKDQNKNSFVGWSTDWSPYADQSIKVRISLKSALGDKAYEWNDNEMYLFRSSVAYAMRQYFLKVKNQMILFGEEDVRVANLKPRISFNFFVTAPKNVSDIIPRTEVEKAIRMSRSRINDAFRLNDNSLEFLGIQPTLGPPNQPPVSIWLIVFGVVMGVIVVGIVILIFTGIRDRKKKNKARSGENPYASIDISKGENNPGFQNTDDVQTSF

[6] = biological target: T1, hACE2; test: ACE2 binding assay (ACE2 Inhibitor Screening Assay Kit); set-up: purchased BPS Bioscience
[7] = test system: A549 cells expressing eGFP spike protein fusing with hACE2-overexpressing A549 cells; type: cell-based, human; conditions: 25 μg/ml, 4 h
[8] = biological target: T2, cellular hACE2 in hACE2/A549 cells (Homo sapiens, UniProt Q9BYF1); test: Cellular hACE2 activity assay; conditions: cell-based
T2 construct: host or cells: A549 (human alveolar epithelial) stably overexpressing hACE2
T2 sequence (Q9BYF1 18-805): as above
Description: ACE2 activity assays: To determine the inhibitory effect of selected polyphenols on the activity of cellular hACE2 protein, hACE2/A549 cells were seeded in 48-well plates and allowed to adhere for 24 h or until reaching 99-100% of confluence. […] (Dnp)-OH. Finally, the plates were incubated at 37° C. for 1 h, and the fluorescence signal was measured at Ex/Em=320/405 nm wavelength with a spectrofluorometer (Tecan Group Ltd, Switzerland). […] Results are expressed as a percentage of polyphenol-free control (mean+/−SD, n=6).

[9] = biological target: T3, recombinant hTMPRSS2 (Homo sapiens, UniProt O15393); test: Recombinant TMPRSS2 activity assay (cell-free); type: biochemical; conditions: 10-25 μg/ml, 3 h treatment
T3 construct: purchased Creative BioMart
T3 sequence (O15393 whole entry): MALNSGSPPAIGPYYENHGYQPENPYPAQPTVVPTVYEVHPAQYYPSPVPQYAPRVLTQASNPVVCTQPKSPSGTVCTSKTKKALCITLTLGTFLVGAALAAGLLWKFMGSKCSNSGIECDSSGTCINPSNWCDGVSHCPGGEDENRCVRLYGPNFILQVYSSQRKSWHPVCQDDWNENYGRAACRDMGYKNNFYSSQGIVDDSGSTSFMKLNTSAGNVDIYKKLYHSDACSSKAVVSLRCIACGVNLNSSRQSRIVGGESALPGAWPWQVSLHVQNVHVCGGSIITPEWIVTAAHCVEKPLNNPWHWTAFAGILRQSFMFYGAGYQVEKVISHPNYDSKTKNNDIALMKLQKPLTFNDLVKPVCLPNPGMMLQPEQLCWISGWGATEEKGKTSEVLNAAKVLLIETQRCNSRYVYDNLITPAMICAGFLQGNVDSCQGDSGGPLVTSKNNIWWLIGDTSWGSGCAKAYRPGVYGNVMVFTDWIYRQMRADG
Description: To this reaction 10 μM of TMPRSS2 enzyme in assay buffer (50 mM Tris pH=8, 150 mM NaCl) was added. Following 1 h incubation at RT, detection of fluorescent signal was performed using a spectrofluorometer at Ex/Em=360/440 nm wavelength (Tecan Group Ltd, Switzerland). The positive control was 100 μM camostat mesylate. […] Results are expressed as a percentage of polyphenol-free control (mean+/−SD, n=6).
Fluorescence was assessed using a spectrofluorometer at extension/emission=360/440 nm (Tecan Group Ltd., Switzerland). The positive control was 100 μM camostat mesylate.

[10] = biological target: T4, human recombinant cathepsin L (Homo sapiens, UniProt P07711); test: Cathepsin L activity, purified/recombinant enzyme (cell-free); type: biochemical
T4 construct: purchased BPS Bioscience
T4 sequence (P07711 114-333): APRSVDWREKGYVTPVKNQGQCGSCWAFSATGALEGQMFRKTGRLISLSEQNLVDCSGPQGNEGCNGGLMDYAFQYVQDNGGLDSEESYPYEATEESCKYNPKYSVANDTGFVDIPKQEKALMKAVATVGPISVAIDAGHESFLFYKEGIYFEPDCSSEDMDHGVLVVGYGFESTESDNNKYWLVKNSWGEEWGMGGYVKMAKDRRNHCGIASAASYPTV
Description: Positive control contained only cathepsin L, and negative control containing cathepsin L and cathepsin L inhibitor E64d (25 μM). The fluorescence was recorded at extension/emission=360/480 nm with a fluorescence spectrometer (Tecan Group Ltd., Switzerland).

[11] = biological target: T5, cathepsin L in A549 cells (Homo sapiens, UniProt P07711); test: Cellular cathepsin L activity (lysates of treated A549 cells); type: cell-based; conditions: 25 μg/ml, not significant
T5 construct: A549 cells were seeded in 6-well plates; endogenous in cells; host or cells: A549 (ATCC)
T5 sequence (P07711 114-333): as above
Description: Cathepsin L activity assays: Cellular cathepsin L activity assays were performed utilizing a Cathepsin L Activity Assay Kit (Abcam, Cambridge, Mass.) according to the manufacturer's protocol. […] The samples were then centrifuged for 2 min. at 4° C. to remove any insoluble material. Supernatants were collected and transferred to clean tubes that were kept on ice. […] The plates were incubated at 37° C. for 1 h and fluorescence signal was measure at Ex/Em=400/505 nm wavelength with a spectrofluorometer (Tecan Group Ltd, Switzerland). […] Results are expressed as a percentage of polyphenol-free control (mean+/−SD, n=6).
Cathepsin L activity assay and its cellular expression: Cathepsin L activity: Experiment was performed in cell lysates using a Cathepsin L Activity Assay Kit (Abcam, Cambridge, Mass.) according to the manufacturer's protocol. […] After 3 minutes of centrifuged for at 4° C., supernatants were collected and enzymatic reaction was set up by mixing 50 μl of treated sample, 50 μl of control sample, 50 μl of background control sample, 50 μl of positive and negative controls. […] Samples were incubated at 37° C. for 1 hour, and fluorescence was recorded at extension/emission=400/505 nm with a fluorescence spectrometer (Tecan Group Ltd., Switzerland).

[12] = biological target: T1, hACE2; test: Recombinant hACE2 activity assay (cell-free); type: biochemical; set-up: purchased BPS Bioscience
Description: To determine the inhibitory effect of selected polyphenols on the activity of recombinant hACE2 protein, an ACE2 Activity Screening Assay Kit (BPS Bioscience, San Diego, Calif.) was used according to the manufacturer's protocol. […] The positive control was a sample containing only ACE2 enzyme, and the negative control was a sample containing ACE2 enzyme and 10% DMSO. ACE2 fluorogenic substrate (10 μM) was added to each well, and the plate was incubated for 1 h at RT. The fluorescence was measured at Ex/Em=535/595 nm wavelength using a spectrofluorometer (Tecan Group Ltd, Switzerland). […] Results are expressed as a percentage of polyphenol-free control (mean+/−SD, n=6).
The positive control contained only ACE2 enzyme, and the negative control additionally contained 10% DMSO.

Molecule | decrease of cathepsin L expression ([1]; starting from 10 μg/ml) | lysosomal/endosomal pH reached [2] | Binding with RBD (% of control ± SD) [3] | cathepsin L expression at protein level [1] | binding energy ΔG to RBD / viral spike protein [4] [kcal/mol] | binding energy to hACE2 [5] [kcal/mol] | concentration at which binding efficacy to ACE2 was shown [6] [µg/mL] | decrease of cell-cell fusion [7] [%] | effect on ACE2 activity [8] | inhibition of recombinant hTMPRSS2 activity [9] | effect on recombinant cathepsin L [10] | decrease of cathepsin L activity in cell lysates [11] [%] | direct binding to ACE2 receptor ([6]; polyphenols 5.0-25 μg/ml, PB 5.0 and 10 μg/ml) | effect on ACE2 activity [12]
Theaflavin-3,3′-digallate | about 20% | 5.5-6.0 |  |  |  |  |  |  |  |  |  |  |  | 
COc1cc(/C=C/C(=O)CC(=O)/C=C/c2ccc(O)c(OC)c2)ccc1O [Curcumin] |  |  | 100 ± 0.2 % of control | neither brazilin nor curcumin down-regulated cathepsin L expression | -10.5 | -8.9 | 10 to 25 |  |  |  |  |  |  | 
Oc1ccc2c(c1)OC[C@]1(O)Cc3cc(O)c(O)cc3[C@H]21 [Brazilin] |  |  | 100 ± 0.1 % of control | neither brazilin nor curcumin down-regulated cathepsin L expression |  |  |  | 40 | no effects | 20-30% | minor, not significant effect | 15 | does not bind to ACE2 directly | no effects
